Test [1] has as its system transferase derived from the Sulfolobus solfataricus strain KM1. Put plainly: Conversion of maltooligosaccharides into α-1,α-1-transferred isomers by purified transferase. The class given is biochemical. The note with it: substrate 100 mM; for Enzyme activity: enzyme 13.5 Units/ml (on maltotriose), 1 Unit = 1 umol α-1,α-1-transferred isomer per hour. How it is done:
As the substrates, maltotriose (G3)-maltoheptaose (G7) were used in a concentration of 100 mM. The purified enzyme obtained in Example I-2 was then allowed to act on each of the above substrates in an amount of 13.5 Units/ml (in terms of the enzyme activity when the substrate is maltotriose) to produce a corresponding α-1,α-1-transferred isomer. Each product was analyzed by the method in Example I-1, and investigated its yield and enzyme activity. Incidentally, in Table 10, each enzymatic activity value was expressed with such a unit as 1 Unit equals the activity of converting the maltooligosaccharide into 1 umol of corresponding α-1,α-1-transferred isomer per hour.

Test [2] deals with recombinant novel transferase. The test is described as follows: Conversion of maltooligosaccharides into α-1,α-1-transferred isomers by transferase from a transformant. The format is biochemical, Sulfolobus solfataricus. The note with it: 12.7 Units/ml concentrated enzyme solution (on maltotriose); 1 Unit = 1 μmol α-1,α-1-transferred isomer per hour. How it is done: Maltotriose (G3)-Maltoheptaose (G7) (all manufactured by Hayashibara Baiokemikaru Co.) were used as substrates. The crude enzyme solution obtained in Example I-14 was lyophilized, and then suspended in a 50 mM sodium acetate solution (pH 5.5) to make a concentrated enzyme solution. Each of the substrates was subjected to reaction with 12.7 Units/ml (in terms of the enzymatic activity when maltotriose is used as the substrate) of the concentrated enzyme solution to produce a corresponding α-1,α-1-transferred isomer. Each reaction product was analyzed by the method described in Example I-1 to examine the yield and the enzymatic activity. Incidentally, as to the enzymatic activity shown in Table 38, 1 Unit is defined as an enzymatic activity of transferring maltooligosaccharide to produce 1 μmol per hour of a corresponding α-1,α-1-transferred isomer.

Test [3] addresses T1, amylase derived from the Sulfolobus solfataricus strain KM1 (Saccharolobus solfataricus, UniProt Q55088).
T1 construct: endogenous in cells; host or cells: Sulfolobus solfataricus strain KM1 cells
T1 sequence (Q55088 1-559): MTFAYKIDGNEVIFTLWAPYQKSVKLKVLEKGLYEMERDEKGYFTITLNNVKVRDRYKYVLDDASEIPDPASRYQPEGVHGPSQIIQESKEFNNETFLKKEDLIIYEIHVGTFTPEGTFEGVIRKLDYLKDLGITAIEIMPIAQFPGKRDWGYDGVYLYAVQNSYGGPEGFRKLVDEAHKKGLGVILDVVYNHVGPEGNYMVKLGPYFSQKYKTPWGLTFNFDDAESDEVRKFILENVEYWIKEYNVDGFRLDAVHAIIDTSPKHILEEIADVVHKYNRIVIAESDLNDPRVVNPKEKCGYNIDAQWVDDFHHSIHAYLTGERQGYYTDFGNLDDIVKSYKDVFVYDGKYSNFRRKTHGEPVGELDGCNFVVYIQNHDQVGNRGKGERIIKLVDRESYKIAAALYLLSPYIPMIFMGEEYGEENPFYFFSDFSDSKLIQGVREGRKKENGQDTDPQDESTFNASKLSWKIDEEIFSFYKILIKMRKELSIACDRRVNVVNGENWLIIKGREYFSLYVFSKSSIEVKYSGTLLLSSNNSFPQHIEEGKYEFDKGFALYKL
The test is described as follows: Substrate specificity of the purified amylase (hydrolyzing properties, TSK-gel Amide-80 HPLC). The format is biochemical. The note with it: for Liberated oligosaccharide / Production rate of mono- and disaccharides: 25.0 Units/ml enzyme, 10 mM substrate (amylopectin and soluble starch 2.8%); for Production rate of mono- and disaccharides: 1 Unit = 1 μmol per hour. Here is the method:
The hydrolyzing properties were analyzed by allowing 25.0 Units/ml (in terms of the enzymatic activity when maltotriosyltrehalose is used as the substrate) of the present purified enzyme to act on the various 10 mM substrates (except amylopectin and soluble starch were used as 2.8% solutions) listed in Table 16 below, and the hydrolyzed products were also analyzed.
Incidentally, each enzymatic activity in Table 16 is expressed with such a unit as 1 Unit equals the activity of liberating 1 μmol of each of the monosaccharide and disaccharide per hour.

In test [4] the target is T2, swine pancreatic α-amylase (Sus scrofa, UniProt P00690).
T2 construct: purchased Sigma Co. A-6255
T2 sequence (P00690 16-511): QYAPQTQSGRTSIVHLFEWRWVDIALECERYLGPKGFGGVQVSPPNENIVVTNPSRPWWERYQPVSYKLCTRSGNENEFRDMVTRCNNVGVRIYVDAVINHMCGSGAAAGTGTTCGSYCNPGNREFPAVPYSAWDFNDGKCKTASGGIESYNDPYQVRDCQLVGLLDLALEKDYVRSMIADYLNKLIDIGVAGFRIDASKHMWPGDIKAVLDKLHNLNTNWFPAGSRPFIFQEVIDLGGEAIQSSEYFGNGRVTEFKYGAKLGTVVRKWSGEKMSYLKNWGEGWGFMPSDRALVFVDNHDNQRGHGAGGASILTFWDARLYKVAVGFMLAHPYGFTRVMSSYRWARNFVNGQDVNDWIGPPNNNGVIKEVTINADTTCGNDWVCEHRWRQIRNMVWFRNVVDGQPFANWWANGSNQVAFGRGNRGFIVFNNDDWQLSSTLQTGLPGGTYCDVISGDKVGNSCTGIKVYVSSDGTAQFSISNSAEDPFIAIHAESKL
The test is described as follows: Hydrolysis of oligosaccharides by pancreatic α-amylase (comparative). The class given is biochemical. The note with it: 1 Unit/ml α-amylase, 10 mM substrate, pH 6.9, 20° C.; for Production rate of di- and trisaccharides: 1 Unit = 1 umol per hour. Here is the method:
Swine pancreatic α-amylase is known to hydrolyze maltooligosaccharide from the reducing end by two or three sugar units [“Denpun.Kanren Toushitsu Kouso Jikken-hou” (“Experimental methods in enzymes for starch and relating saccharides”), p 135, written by Michinori Nakamura and Keiji Kainuma, published by Gakkai-Shuppan-Sentah]. Upon this, a swine pancreatic α-amylase (manufactured by Sigma Co., A-6255) was analyzed the hydrolyzing properties and the hydrolysates as a comparative example for the novel amylase of the present invention. […] The activity of producing disaccharide and trisaccharide was employed as the index of the enzymatic activity, and the analysis was performed by the TSK-gel Amide-80 HPLC analyzing method described in Example II-1.
Incidentally, the enzymatic activity values in Table 17 were expressed with such a unit as 1 Unit equals the activity of liberating 1 umol of each oligosaccharide per hour.

The target of test [5] is T3, recombinant novel amylase (Saccharolobus solfataricus, UniProt Q55088).
T3 sequence (Q55088 1-559): T1 sequence (Q55088 1-559)
The test is described as follows: Substrate specificity of the recombinant novel amylase (crude enzyme solution). The note with it: for Liberated oligosaccharide / Production rate of mono- and disaccharides: 35.2 Units/ml crude enzyme solution, 10 mM substrate (amylopectin and soluble starch 3.0%); for Production rate of mono- and disaccharides: 1 Unit = 1 μmol per hour.

The test system of test [6] is transferase derived from the Sulfolobus solfataricus strain KM1. Put plainly: Substrate specificity of the transferase (production of α-1,α-1-transferred isomer). The class given is biochemical. Here is the method: It was investigated whether or not the present enzyme acts on each of the substrates listed in Table 9 below to produce its α-1,α-1-transferred isomer. Here, the activity measurement was performed in the same manner as in Example I-1.

Test [7] shares this test system. Put plainly: Influence of activators and inhibitors on glucosyltrehalose-producing activity. The class given is biochemical. The note with it: Concentration 0.5 mM.
Test [8] addresses T1, amylase derived from the Sulfolobus solfataricus strain KM1. Put plainly: biochemical. The class given is biochemical. The note with it: Concentration 0.5 mM.

For `OC[C@H]1O[C@H](O[C@H]2[C@H](O)[C@@H](O)[C@@H](O[C@H]3[C@H](O)[C@@H](O)C(O)O[C@@H]3CO)O[C@@H]2CO)[C@H](O)[C@@H](O)[C@@H]1O` (mixture of isomers) [Maltotriose (G3), Maltotriose], the Enzyme activity in test [1] came to 13.5 units/ml; in test [2] it was 12.7 unit/ml. Also, the Liberated oligosaccharide result in test [3] is on record as “Glucose + G2”; in test [4], “not decomposed”; in test [5], “Glucose + G2”. Besides, the “Production rate of mono- and disaccharides” value was 0.30 units/ml in test [3] and 0.27 units/ml in test [5]. For the same compound, the “Production rate of di- and trisaccharides” value in test [4] worked out at 0 units/ml.

Consider `OC[C@H]1O[C@H](OC[C@H]2O[C@H](OC[C@H]3O[C@H](OC[C@H]4O[C@H](OC[C@H]5OC(O)[C@H](O)[C@@H](O)[C@@H]5O)[C@H](O)[C@@H](O)[C@@H]4O)[C@H](O)[C@@H](O)[C@@H]3O)[C@H](O)[C@@H](O)[C@@H]2O)[C@H](O)[C@@H](O)[C@@H]1O` (stereo partly drawn) [Isomaltopentaose], for which the “Action of the enzyme on the substrate” value in test [6] is recorded as “did not act”. Further, in test [3], the “Action of the enzyme on the substrate” value is given as “did not act”; the Liberated oligosaccharide entry is recorded as “not decomposed”; the “Production rate of mono- and disaccharides” value is on record as 0 units/ml. Further, in test [5], the “Action of the enzyme on the substrate” value is “did not act”; the Liberated oligosaccharide entry is “not decomposed”; the “Production rate of mono- and disaccharides” value was 0 units/ml.

In the case of `OC[C@H]1O[C@H](OC[C@H]2O[C@H](OC[C@H]3O[C@H](OC[C@H]4OC(O)[C@H](O)[C@@H](O)[C@@H]4O)[C@H](O)[C@@H](O)[C@@H]3O)[C@H](O)[C@@H](O)[C@@H]2O)[C@H](O)[C@@H](O)[C@@H]1O` (stereo partly drawn) [Isomaltotetraose], the “Action of the enzyme on the substrate” value in test [6] is reported as “did not act”. In addition, in test [3], the “Action of the enzyme on the substrate” value is recorded as “did not act”; the Liberated oligosaccharide result is reported as “not decomposed”; the “Production rate of mono- and disaccharides” value was 0 units/ml. In test [5], the “Action of the enzyme on the substrate” value is on record as “did not act”; the Liberated oligosaccharide entry is reported as “not decomposed”; the “Production rate of mono- and disaccharides” value is reported as 0 units/ml.

In the case of `OC[C@H]1O[C@H](OC[C@H]2O[C@H](OC[C@H]3OC(O)[C@H](O)[C@@H](O)[C@@H]3O)[C@H](O)[C@@H](O)[C@@H]2O)[C@H](O)[C@@H](O)[C@@H]1O` (stereo partly drawn) [Isomaltotriose], in test [6], the “Action of the enzyme on the substrate” value is recorded as “did not act”. Moreover, in test [3], the “Action of the enzyme on the substrate” value was “did not act”; the Liberated oligosaccharide entry is recorded as “not decomposed”; the “Production rate of mono- and disaccharides” value is on record as 0 units/ml. In addition, in test [5], the “Action of the enzyme on the substrate” value is listed as “did not act”; the Liberated oligosaccharide entry is on record as “not decomposed”; the “Production rate of mono- and disaccharides” value is recorded as 0 units/ml.

As to `OC[C@H]1O[C@H](O[C@H]2[C@H](O)[C@@H](O)[C@@H](O[C@H]3[C@H](O)[C@@H](O)[C@@H](O[C@H]4[C@H](O)[C@@H](O)C(O)O[C@@H]4CO)O[C@@H]3CO)O[C@@H]2CO)[C@H](O)[C@@H](O)[C@@H]1O` (stereo partly drawn) [Maltotetraose (G4), Maltotetraose], the Residual activity is reported as 97.4% in test [7] and 108.5% in test [8]. For the same compound, the Enzyme activity in test [1] is recorded as 76.3 units/ml; in test [2], 72.5 unit/ml. For the same compound, the Liberated oligosaccharide entry in test [3], in test [4] and in test [5] was “Glucose + G2 + G3” each time. Moreover, the figures for the “Production rate of mono- and disaccharides” value in test [3] and in test [5] were 0.31 units/ml and 0.26 units/ml, respectively. In test [4], the “Production rate of di- and trisaccharides” value is listed as 0.49 units/ml.

Consider Maltoheptaose [Maltoheptaose (G7)], for which the Residual activity in test [7] was found to be 93.5%; in test [8], 129.2%. In addition, the values for the Enzyme activity in test [1] and in test [2] were 70.5 units/ml and 60.2 unit/ml, respectively. In addition, the Liberated oligosaccharide entry in test [3] is recorded as “Glucose + G2 + G5 + G6”. In addition, the “Production rate of mono- and disaccharides” value in test [3] was found to be 1.80 units/ml. Besides, the “Production rate of di- and trisaccharides” value in test [4] is reported as 4.45 units/ml.

On to Maltohexaose [Maltohexaose (G6)], for which the Residual activity in test [7] is given as 91.0%; in test [8], 123.8%. Besides, the Enzyme activity in test [1] is recorded as 100.9 units/ml; in test [2], 87.3 unit/ml. In addition, the Liberated oligosaccharide result in test [3] is listed as “Glucose + G2 + G4 + G5”. Also, in test [3], the “Production rate of mono- and disaccharides” value is recorded as 1.74 units/ml. Further, the “Production rate of di- and trisaccharides” value in test [4] is 4.44 units/ml.

For the compound Maltopentaose [Maltopentaose (G5)], the figures for the Residual activity in test [7] and in test [8] were 101.9% and 105.8%, respectively. In addition, the “Activity relative to G3” value in test [1] is “approximately 8 times”. The Enzyme activity turned out to be 111.3 units/ml in test [1] and 103.5 unit/ml in test [2]. The Liberated oligosaccharide entry in test [3] and in test [5] was “Glucose + G2 + G3 + G4” throughout. For the same compound, the figures for the “Production rate of mono- and disaccharides” value in test [3] and in test [5] were 1.79 units/ml and 2.12 units/ml, respectively. The “Production rate of di- and trisaccharides” value in test [4] was 6.12 units/ml.

The values above are taken from patent US6391595B1, “Transferase and amylase, process for producing the enzymes, use thereof, and gene coding for the same” (Kirin Beer Kabushiki Kaisha, priority 1994, dated 2002).
